These results are taken from article PMC5908784, “Extracellular loops 2 and 3 of the calcitonin receptor selectively modify agonist binding and efficacy” (Biochemical Pharmacology, 2018).

Residue numbers refer to the chain shown, from its start. Where a SMILES comes first, the peptide text is derived from it. Bridges are numbered along the chain shown (N, C = ends).

Holding throughout (test): IP1 accumulation
Common to all, as to type: cell-based
Common to all, as to details: mean ± S.E.M.; for Emax: IP1 maximal response, SEM

One experiment concerns the target T1, hCTR E294A (Homo sapiens, UniProt P30988, E294A).
T1 construct: c-Myc (N); expressed in transfected cells
T1 sequence (P30988 25-474 E294A): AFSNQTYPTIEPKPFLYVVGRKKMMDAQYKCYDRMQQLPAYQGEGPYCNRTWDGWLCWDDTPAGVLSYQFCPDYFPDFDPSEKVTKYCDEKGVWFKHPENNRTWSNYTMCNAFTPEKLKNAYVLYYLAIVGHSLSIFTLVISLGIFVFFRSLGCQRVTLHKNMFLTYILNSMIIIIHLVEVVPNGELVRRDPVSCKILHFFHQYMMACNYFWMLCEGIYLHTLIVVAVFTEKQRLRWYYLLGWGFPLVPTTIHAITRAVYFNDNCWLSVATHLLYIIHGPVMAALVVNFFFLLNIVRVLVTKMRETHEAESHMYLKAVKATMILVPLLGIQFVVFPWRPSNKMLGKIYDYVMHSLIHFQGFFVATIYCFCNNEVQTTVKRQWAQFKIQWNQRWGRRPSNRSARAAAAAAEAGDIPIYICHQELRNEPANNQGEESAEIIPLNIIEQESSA
How it is done:
(§1) Cells (2.5 × 10^4 cells/well) were plated into 96 well trays and cultured overnight. Cells were stimulated with increasing concentration of ligands for 60 min in the presence of LiCl. Samples were lysed and endogenous IP1 was measured using an IP-One HTRF® assay kit (CisBio) as specified by the manufacturer. Data were normalized to the maximal response elicited by 100 μM of ATP.
(§2) Data were corrected for radioligand occupancy using the Cheng-Prusoff equation in Prism; as such data are reported as pKi. Emax and EC50 were estimated from concentration-response curves using with a 3-parameter logistic equation in Prism (v7). These values are a composite of functional affinity, efficacy and stimulus response coupling. […] Significance was accepted at P < 0.05.

The target in another experiment is T2, hCTR P360A (Homo sapiens, UniProt P30988, P360A).
T2 construct: expressed in transfected cells
T2 sequence (P30988 25-474 P360A): T1 sequence (P30988 25-474 E294A) with A270E, P336A
How it is done: as §1, §2

A further experiment deals with T3, hCTR S292A (Homo sapiens, UniProt P30988, S292A).
T3 construct: expressed in transfected cells
T3 sequence (P30988 25-474 S292A): T1 sequence (P30988 25-474 E294A) with S268A, A270E
How it is done:
as §1, §2

The next experiment addresses T4, hCTR V293A (Homo sapiens, UniProt P30988, V293A).
T4 construct: c-Myc (N); expressed in transfected cells
T4 sequence (P30988 25-474 V293A): T1 sequence (P30988 25-474 E294A) with V269A, A270E
How it is done: as §1, §2

A further experiment has as its target T5, hCTR Y372A (Homo sapiens, UniProt P30988, Y372A).
T5 construct: c-Myc (N); expressed in transfected cells
T5 sequence (P30988 25-474 Y372A): T1 sequence (P30988 25-474 E294A) with A270E, Y348A
As for the experimental part:
as §1, §2

[1] abbreviates: IP1, CV1-FlpIn cells, 60 min, LiCl.

For the molecule `CC[C@H](C)[C@H](NC(=O)[C@H](C)NC(=O)[C@@H](NC(=O)[C@H](CCC(N)=O)NC(=O)[C@@H]1CCCN1C(=O)[C@H](Cc1ccccc1)NC(=O)[C@@H](NC(=O)[C@H](Cc1c[nH]cn1)NC(=O)[C@H](Cc1ccccc1)NC(=O)[C@H](CCCCN)NC(=O)[C@H](CC(N)=O)NC(=O)[C@H](Cc1ccccc1)NC(=O)[C@H](CC(=O)O)NC(=O)[C@H](CCC(N)=O)NC(=O)[C@@H](NC(=O)[C@H](Cc1ccc(O)cc1)NC(=O)[C@@H](NC(=O)CNC(=O)[C@H](CC(C)C)NC(=O)[C@H](CCSC)NC(=O)[C@@H]1CSSC[C@H](N)C(=O)NCC(=O)N[C@@H](CC(N)=O)C(=O)N[C@@H](CC(C)C)C(=O)N[C@@H](CO)C(=O)N[C@@H]([C@@H](C)O)C(=O)N1)[C@@H](C)O)[C@@H](C)O)[C@@H](C)O)[C@@H](C)O)C(=O)NCC(=O)N[C@H](C(=O)NCC(=O)N[C@@H](C)C(=O)N1CCC[C@H]1C(N)=O)C(C)C` [hCT], the Emax on hCTR E294A is 57 ± 6%; on hCTR P360A it was 95 ± 8%; at hCTR S292A, 70 ± 6%; at hCTR V293A it was 87 ± 4%; on hCTR Y372A it was 68 ± 9%.
For the molecule `CSCC[C@H](NC(=O)CNC(=O)[C@H](CO)NC(=O)[C@H](Cc1ccccc1)NC(=O)[C@H](CCCNC(=N)N)NC(=O)[C@H](Cc1c[nH]cn1)NC(=O)[C@H](Cc1ccccc1)NC(=O)[C@H](CC(N)=O)NC(=O)[C@H](CC(N)=O)NC(=O)[C@H](CC(C)C)NC(=O)[C@H](CC(N)=O)NC(=O)[C@H](CCCNC(=N)N)NC(=O)[C@H](Cc1c[nH]c2ccccc12)NC(=O)[C@H](Cc1ccc(O)cc1)NC(=O)[C@H](C)NC(=O)[C@H](CO)NC(=O)[C@H](CC(C)C)NC(=O)[C@@H](NC(=O)[C@@H]1CSSC[C@H](N)C(=O)N[C@@H](CO)C(=O)N[C@@H](CC(N)=O)C(=O)N[C@@H](CC(C)C)C(=O)N[C@@H](CO)C(=O)N[C@@H]([C@@H](C)O)C(=O)N1)C(C)C)C(=O)NCC(=O)N[C@@H](Cc1ccccc1)C(=O)NCC(=O)N1CCC[C@H]1C(=O)N[C@@H](CCC(=O)O)C(=O)N[C@H](C(=O)N1CCC[C@H]1C(N)=O)[C@@H](C)O` [pCT] (H-CSNLSTCVLSAYWRNLNNFHRFSGMGFGPETP-NH2; disulfide 1-7), the EC50 is 1.29 nM on hCTR E294A (setting [1]); 85.1 nM at hCTR P360A (setting [1]); 4.27 nM at hCTR S292A (setting [1]); 3.24 nM on hCTR V293A (setting [1]); 2.88 nM at hCTR Y372A (setting [1]). In addition, the Emax on hCTR E294A worked out at 119 ± 8%; on hCTR P360A it was 107 ± 12%; on hCTR S292A it was 92 ± 7%; at hCTR V293A it was 112 ± 10%; on hCTR Y372A, 44 ± 5%.
Take `CC(C)C[C@H](NC(=O)[C@H](CCCCN)NC(=O)CNC(=O)[C@H](CC(C)C)NC(=O)[C@@H](NC(=O)[C@@H]1CSSC[C@H](N)C(=O)N[C@@H](CO)C(=O)N[C@@H](CC(N)=O)C(=O)N[C@@H](CC(C)C)C(=O)N[C@@H](CO)C(=O)N[C@@H]([C@@H](C)O)C(=O)N1)C(C)C)C(=O)N[C@@H](CO)C(=O)N[C@@H](CCC(N)=O)C(=O)N[C@@H](CCC(=O)O)C(=O)N[C@@H](CC(C)C)C(=O)N[C@@H](Cc1c[nH]cn1)C(=O)N[C@@H](CCCCN)C(=O)N[C@@H](CC(C)C)C(=O)N[C@@H](CCC(N)=O)C(=O)N[C@H](C(=O)N[C@@H](Cc1ccc(O)cc1)C(=O)N1CCC[C@H]1C(=O)N[C@@H](CCCNC(=N)N)C(=O)N[C@H](C(=O)N[C@@H](CC(N)=O)C(=O)N[C@H](C(=O)NCC(=O)N[C@@H](CO)C(=O)NCC(=O)N[C@H](C(=O)N1CCC[C@H]1C(N)=O)[C@@H](C)O)[C@@H](C)O)[C@@H](C)O)[C@@H](C)O` [sCT]: the Emax stood at 84 ± 5% at hCTR E294A; 144 ± 5% at hCTR P360A; 91 ± 6% on hCTR S292A; 109 ± 7% on hCTR V293A; 46 ± 4% on hCTR Y372A.

What is called Emax is the size of the effect at its maximum, as opposed to the concentration needed. As a reminder, the EC50 is the concentration giving half of the maximal effect. High values mean lower potency in that assay, low ones higher potency in that assay.
